Series [1] can be described thus: In vitro Caco-2 assay for cell permeability. The class given is in vitro ADME. The settings on record: human, Caco-2, pH 7.4, 10 uM, 2 hour incubation. As for the experimental part: (§1) Caco-2 cells (ATCC Cat. # HTB-37) were grown on fibrillar collagen-coated, microporous, polycarbonate membranes in 24-well BioCaot™ insert plates. Following 5-day growth in Eagle's minimum essential medium supplemented with 10% FBS, the cells were exposed to BioCoat Enterocyte Differentiation Medium (BD, Cat. # 05496) for 2 days to induce enterocytic differentiation. Prior to dosing, the transepithelial electric resistance (TEER) of the Caco-2 cells in each well was measured to ensure the quality of the monolayers.
(§2) The stock solutions of test compounds were prepared at 3 mM in DMSO. Dosing solutions were prepared in the permeability assay buffer at 10 μm. The permeability assay buffer was Hank's balanced salt solution containing 10 mM HEPES at a pH of 7.4±0.2.
(§3) The Caco-2 cells were dosed with the test compounds on either apical side (for A-to-B permeation) or basolateral side (for B-to-A permeation) and incubated at 37° C. with 5% CO2 and 90% relative humidity. The testing for each compound was performed in duplicate. After 2 hour incubation, a 20-μL sample was taken from each of dosing solutions and both donor and receiver compartments. To ensure the validity of the Caco-2 assay, propranolol and vinblastine were used as a high- and a low- to medium-permeability positive control, respectively. Vinblastine also served as a P-gp substrate, tested in conjunction with a P-gp inhibitor, verapamil.
(§4) To quantify test compounds by LC/MS/MS, a related geldanamycin-like compound, 17-methoxyethylamino geldanamycin (Schnur et al., 1995), was used as the internal standard. The calculation of permeability of each compound involved only the concentration ratio of the same test compound, the concentration ratio was expressed in the peak area ratio of the test compound to the internal standard. The peak area ratio of each compound was derived by LC-MS/MS.
(§5) The apparent permeability coefficient Papp was calculated as below: […]
(§6) dCr: cumulative concentration in the receiver compartment in M. dt: duration of the assay (i.e., 7200 seconds). Vr: volume of the receiver compartment in cm^3. A: area of the cell monolayer (0.31 cm^2 for 24-well BioCoat™ plate). C0: concentration of the dosing solution in M.
(§7) The in vitro permeability of 20 and the parent 17 were assayed using caco-2 cells, as described in the general methods. All compounds were analysed at a concentration of 10 uM.
(Caco-2 cells form a polarised layer with tight junctions and transporters.)

Another series has as its system Caco-2 cells. Briefly: In vitro Caco-2 assay for cell permeability. The class given is in vitro ADME. The settings on record: 10 uM, 2 hour incubation. How it is done: as §1, §2, §3, §4, §5, §6, §7
Series [2] in a line: In vivo pharmacokinetic assay in mice. On the set-up: species or system mouse. As to conditions: female CD-1 mice. As for the experimental part:
The test compound was prepared directly in endotoxin free water. A single dose of 10 mg/kg p.o. or 3 mg/kg i.v. was administered to groups of female CD1 mice (3 mice for each compound per time point). Dose volumes were 10 mL/kg for both oral and intravenous administration. At 4 minutes and 0.25, 0.5, 1, 2, 4, 8, 24 hours groups were sacrificed and plasma was collected from each mouse for further analysis. For oral dosing, a single dose of Test Article was administered via oral gavage to the mice. For intravenous dosing, a single dose of Test article was administered intravenously to mice via the tail veins.
The concentration of the relevant compounds in the plasma samples was determined by HPLC with MS detection.
• Mass spectrometer: API 3200 Q Trap triple quadruple mass spectrometer • Liquid chromatography: Agilent 1200/PAL HTC Autosampler • Ionization Mode: Electrospray (may be changed depending on the TA) • Monitoring: Multiple Reaction Monitoring • LC chromatography BetaBastic-8, 50×2.1 mm, 5 μm (may separation: be changed depending on the TA)
Based on the peak area ratios of test article to an internal standard, 17-Methoxyethylamino Geldanamycin (Schnur et al., 1995), concentrations of an unknown sample were obtained by a calibration curve.
Test plasma sample (0.05 ml), analyte free mouse whole serum (0.05 ml), internal standard solution (0.1 ml of 10 mg/mL 17-Methoxyethylamino geldanamycin (Schnur et al., 1995) dissolved in methanol) and acetonitrile (0.5 ml) were pipetted into a 2-mL polypropylene tube and the contents of the tubes were mixed for a minimum of 5 minutes (Vibrax mixer). The tubes were then centrifuged in a microfuge for a minimum of 2 minutes at 12,000 rpm. 0.1 ml of the solvent layer was transferred into a 2-mL polypropylene tube containing 1 mL acid diluent (0.1% formic acid). The tubes were then mixed for a minimum of 5 minutes (Vibrax mixer) and then centrifuged at approximately 3500 rpm for 5 minutes. The extracts were transferred to auto-sampler vials and placed in the auto sampler tray which was set at ambient temperature. The auto-sampler was programmed to inject a 0.005 ml aliquot of each extract onto the analytical column.
In vivo confirmation of the cleavage of 20 to the parent molecule, 17, was carried out as described in the general methods.
Female CD-1 mice were given single doses of 20, either intravenously at 3 mg/kg, or orally at 10 mg/kg. Plasma samples were then collected at 8 time points (0.067, 0.25, 0.5, 1, 2, 4, 8 and 24 h postdose) over a 24-h period. The amounts of 20 and 17 in the samples were then analysed. […] After iv administration, 20 was only detected up to 0.25 hours after dosing, whilst 17 was detected up to 4 hours after dosing.

Like-named read-outs stand apart in the source and are kept apart here.

Usually Papp A→B stands for the apparent permeability from the apical to the basolateral side of a cell layer. As usually defined, the Papp B→A is the apparent permeability from the basolateral to the apical side of a cell layer. Take `CO[C@H]1C[C@H](C)Cc2cc(cc(OP(=O)(O)O)c2)NC(=O)/C(C)=C/CC[C@H](C)[C@@H](OC(N)=O)/C(C)=C/[C@H](C)[C@H]1O` [Compound 20, 4,5-dihydro-11-O-demethyl-15-demethoxy-18,21-didehydro-21-deoxomacbecin-18-phosphate]: the efflux ratio at 2 h, 10 uM in series [1] (read-out: Efflux ratio Papp(B → A)/Papp(A → B)) worked out at 0.7. The figures for the Papp A→B at 2 h, 10 uM in series [1] (read-out: Permeability Apical to Basolateral Papp(A → B) Mean), in series [1] (read-out: Permeability Apical to Basolateral Papp(A → B) Rep. 1) and in series [1] (read-out: Permeability Apical to Basolateral Papp(A → B) Rep. 2) were 0.49 ×10⁻⁶ cm/s, 0.67 ×10⁻⁶ cm/s and 0.31 ×10⁻⁶ cm/s, respectively. Besides, the Papp B→A at 2 h, 10 uM turned out to be 0.35 ×10⁻⁶ cm/s in series [1] (read-out: Permeability Basolateral to Apical Papp(B → A) Mean), 0.22 ×10⁻⁶ cm/s in series [1] (read-out: Permeability Basolateral to Apical Papp(B → A) Rep. 1) and 0.48 ×10⁻⁶ cm/s in series [1] (read-out: Permeability Basolateral to Apical Papp(B → A) Rep. 2). For the same molecule, in the series on Caco-2 cells, the “Efflux Limited” value is listed as “No”. Moreover, the entries for the “detected in plasma up to (time after dosing)” value in series [2] (single intravenous dose of 20 at 3 mg/kg) and in series [2] (single oral dose of 20 at 10 mg/kg) were “up to 0.25 hours” and “not seen in the plasma”, respectively.
